What was measured:
Assay type in all cases: in vivo
[1] = test system: lambsquarters (Chenopodium album); assay: Test D pre-/postemergence plant response
In short: (§1)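 Each compound, in non-phytotoxic solvent with surfactant, was sprayed onto soil right after sowing or onto young plants 2 to 18 cm tall. After 13 to 15 days under greenhouse conditions, effects were judged visually against controls on a 0 (no effect) to 100 (complete control) scale.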

[2] = test system: waterhemp (common waterhemp, Amaranthus rudis); assay: Test D pre-/postemergence plant response
In short: as §1

soybean (Glycine max) = assay: Test D pre-/postemergence plant response
In short: as §1

[3] = test system: johnsongrass (Sorghum halepense); assay: Test D pre-/postemergence plant response
In short: as §1

[4] = test system: winter wheat (Triticum aestivum); assay: Test D pre-/postemergence plant response
In short: as §1

[5] = test system: velvetleaf (Abutilon theophrasti); assay: Test D pre-/postemergence plant response
In short: as §1

[6] = test system: morningglory (Ipomoea coccinea); assay: Test D pre-/postemergence plant response
In short: as §1

[7] = test system: small-flower umbrella sedge (Cyperus difformis); assay: Test C flooded paddy test plant response; settings: Flood, 250 g ai/ha; scale of 0 to 100 where 0 is no effect and 100 is complete control; 13 to 15 days
In short: (§2)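 Plants grown to 2-leaf stage, flooded 3 cm above soil; compounds applied directly into paddy water, depth kept throughout. Visual rating versus controls after 13 to 15 days in greenhouse, 0 (no effect) to 100 (complete control).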

rice (Oryza sativa) = assay: Test C flooded paddy test plant response; settings: Flood, 250 g ai/ha; scale of 0 to 100 where 0 is no effect and 100 is complete control; 13 to 15 days
In short: as §2

[8] = test system: ducksalad (Heteranthera limosa); assay: Test C flooded paddy test plant response; settings: Flood, 250 g ai/ha; scale of 0 to 100 where 0 is no effect and 100 is complete control; 13 to 15 days
In short: as §2

[9] = test system: barnyardgrass (Echinochloa crus-galli); assay: Test C flooded paddy test plant response; settings: Flood, 250 g ai/ha; scale of 0 to 100 where 0 is no effect and 100 is complete control; 13 to 15 days
In short: as §2

corn (Zea mays) = assay: Test B pre-/postemergence plant response
In short: (§3)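 Scoring used a 0–100 scale (100 = complete control) by visual comparison with untreated plants after approximately 10 days in the greenhouse. Compounds, in surfactant-containing non-phytotoxic solvent, were sprayed onto soil at planting or onto 2–10 cm seedlings.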

[10] = test system: pigweed (Amaranthus retroflexus); assay: Test B pre-/postemergence plant response
In short: as §3

[11] = test system: wheat (Triticum aestivum); assay: Test B pre-/postemergence plant response
In short: as §3

[12] = test system: giant foxtail (Setaria faberii); assay: Test B pre-/postemergence plant response
In short: as §3

[13] = test system: barnyardgrass (Echinochloa crus-galli); assay: Test B pre-/postemergence plant response
In short: as §3

[14] = Postemergence, 31 g ai/ha, scale 0 to 100 (0 no effect, 100 complete control)
[15] = Postemergence, 62 g ai/ha, scale 0 to 100, 0 no effect, 100 complete control
[16] = Postemergence, 125 g ai/ha, scale 0 to 100, 0 no effect, 100 complete control
[17] = Preemergence, 16 g ai/ha, scale 0 to 100 (0 no effect, 100 complete control)
[18] = Preemergence, 31 g ai/ha, scale 0 to 100 (0 no effect, 100 complete control)
[19] = Preemergence, 62 g ai/ha, scale 0 to 100 (0 no effect, 100 complete control)
[20] = 125 g ai/ha, postemergence, 0 to 100 scale, 0 no effect, 100 complete control
[21] = Postemergence, 31 g ai/ha, 0 to 100 scale (0 no effect, 100 complete control)
[22] = 31 g ai/ha, Preemergence, 0 to 100 scale where 0 is no effect and 100 is complete control
[23] = Preemergence, 125 g ai/ha, 0 to 100 scale (0 no effect, 100 complete control)

## Cc1cc(-c2c(F)cccc2Oc2ncc(Cl)cn2)on1 [Compound 229]
[1]; Postemergence, 16 g ai/ha
  Plant response rating (scale 0 to 100), Lambsquarters: 60
[1]; [14]
  Lambsquarters plant response rating: 70
[1]; [15]
  Lambsquarters plant response rating: 70
[1]; [16]
  Plant response rating, Lambsquarters: 85
[1]; Preemergence, 125 g ai/ha
  Plant response rating (scale 0 to 100), Lambsquarters: 95
[1]; [17]
  Plant response rating, Lambsquarters: 35
[1]; [18]
  Plant response rating, Lambsquarters: 80
[1]; [19]
  Plant response rating, Lambsquarters: 80
[2]; Postemergence, 16 g ai/ha
  Plant response rating (scale 0 to 100), Waterhemp: 60
[2]; [14]
  Waterhemp plant response rating: 70
[2]; [15]
  Waterhemp plant response rating: 80
[2]; [16]
  Plant response rating, Waterhemp: 85
[2]; Preemergence, 125 g ai/ha
  Plant response rating (scale 0 to 100), Waterhemp: 98
[2]; [17]
  Plant response rating, Waterhemp: 95
[2]; [18]
  Plant response rating, Waterhemp: 100
[2]; [19]
  Plant response rating, Waterhemp: 98
Soybean (Glycine max); Postemergence, 16 g ai/ha
  Plant response rating (scale 0 to 100), Soybean: 20
Soybean (Glycine max); [14]
  Soybean plant response rating: 40
Soybean (Glycine max); [15]
  Soybean plant response rating: 45
Soybean (Glycine max); [16]
  Plant response rating, Soybean: 70
Soybean (Glycine max); Preemergence, 125 g ai/ha
  Plant response rating (scale 0 to 100), Soybean: 95
Soybean (Glycine max); [17]
  Plant response rating, Soybean: 5
Soybean (Glycine max); [18]
  Plant response rating, Soybean: 35
Soybean (Glycine max); [19]
  Plant response rating, Soybean: 60
[3]; Postemergence, 16 g ai/ha
  Plant response rating (scale 0 to 100), Johnsongrass: 0
[3]; [14]
  Johnsongrass plant response rating: 0
[3]; [15]
  Plant response rating, Johnsongrass: 0
[3]; [16]
  Plant response rating, Johnsongrass: 25
[3]; Preemergence, 125 g ai/ha
  Plant response rating (scale 0 to 100), Johnsongrass: 70
[3]; [17]
  Plant response rating, Johnsongrass: 10
[3]; [18]
  Plant response rating, Johnsongrass: 10
[3]; [19]
  Plant response rating, Johnsongrass: 45
[4]; Postemergence, 16 g ai/ha
  Plant response rating (scale 0 to 100), Wheat: 0
[4]; [14]
  Wheat plant response rating: 10
[4]; [15]
  Wheat plant response rating: 5
[4]; [16]
  Plant response rating, Wheat: 10
[4]; Preemergence, 125 g ai/ha
  Plant response rating (scale 0 to 100), Wheat: 15
[4]; [17]
  Plant response rating, Wheat: 0
[4]; [18]
  Plant response rating, Wheat: 0
[4]; [19]
  Plant response rating, Wheat: 0
[5]; Postemergence, 16 g ai/ha
  Plant response rating (scale 0 to 100), Velvetleaf: 15
[5]; [14]
  Velvetleaf plant response rating: 60
[5]; [15]
  Velvetleaf plant response rating: 45
[5]; [16]
  Plant response rating, Velvetleaf: 70
[5]; Preemergence, 125 g ai/ha
  Plant response rating (scale 0 to 100), Velvetleaf: 100
[5]; [17]
  Plant response rating, Velvetleaf: 70
[5]; [18]
  Plant response rating, Velvetleaf: 90
[5]; [19]
  Plant response rating, Velvetleaf: 100
[6]; Postemergence, 16 g ai/ha
  Plant response rating (scale 0 to 100), Morningglory: 40
[6]; [14]
  Morningglory plant response rating: 25
[6]; [15]
  Morningglory plant response rating: 25
[6]; [16]
  Plant response rating, Morningglory: 35
[6]; Preemergence, 125 g ai/ha
  Plant response rating (scale 0 to 100), Morningglory: 45
[6]; [17]
  Plant response rating, Morningglory: 0
[6]; [18]
  Plant response rating, Morningglory: 0
[6]; [19]
  Plant response rating, Morningglory: 35
[7]
  Sedge, Umbrella plant response rating: 90
Rice (Oryza sativa)
  Rice plant response rating: 15
[8]
  Ducksalad plant response rating: 90
[9]
  Barnyardgrass plant response rating: 55
Corn (Zea mays); [20]
  Plant response rating, Corn: 30
Corn (Zea mays); [21]
  Plant response rating, Corn: 0
[10]; [22]
  Plant response rating, Pigweed: 100
[10]; [20]
  Plant response rating, Pigweed: 100
[10]; [21]
  Plant response rating, Pigweed: 70
[10]; [23]
  Pigweed plant response rating: 100
[11]; [20]
  Plant response rating, Wheat: 40
[11]; [21]
  Plant response rating, Wheat: 0
[12]; [22]
  Plant response rating, Foxtail, Giant: 90
[12]; [20]
  Plant response rating, Foxtail, Giant: 80
[12]; [21]
  Plant response rating, Foxtail, Giant: 50
[12]; [23]
  Foxtail, Giant plant response rating: 90
[13]; [22]
  Plant response rating, Barnyardgrass: 50
[13]; [20]
  Plant response rating, Barnyardgrass: 70
[13]; [21]
  Plant response rating, Barnyardgrass: 20
[13]; [23]
  Barnyardgrass plant response rating: 90

## Cc1cc(-c2c(F)cccc2Oc2ncc(Br)cn2)on1 [Compound 230]
[1]; Postemergence, 16 g ai/ha
  Plant response rating (scale 0 to 100), Lambsquarters: 55
[1]; [14]
  Lambsquarters plant response rating: 70
[1]; [15]
  Lambsquarters plant response rating: 80
[1]; [16]
  Plant response rating, Lambsquarters: 70
[2]; Postemergence, 16 g ai/ha
  Plant response rating (scale 0 to 100), Waterhemp: 65
[2]; [14]
  Waterhemp plant response rating: 70
[2]; [15]
  Waterhemp plant response rating: 75
[2]; [16]
  Plant response rating, Waterhemp: 80
Soybean (Glycine max); Postemergence, 16 g ai/ha
  Plant response rating (scale 0 to 100), Soybean: 50
Soybean (Glycine max); [14]
  Soybean plant response rating: 55
Soybean (Glycine max); [15]
  Soybean plant response rating: 65
Soybean (Glycine max); [16]
  Plant response rating, Soybean: 85
[3]; Postemergence, 16 g ai/ha
  Plant response rating (scale 0 to 100), Johnsongrass: 0
[3]; [14]
  Johnsongrass plant response rating: 0
[3]; [15]
  Johnsongrass plant response rating: 5
[3]; [16]
  Plant response rating, Johnsongrass: 5
[4]; Postemergence, 16 g ai/ha
  Plant response rating (scale 0 to 100), Wheat: 5
[4]; [14]
  Wheat plant response rating: 5
[4]; [15]
  Wheat plant response rating: 5
[4]; [16]
  Plant response rating, Wheat: 15
[5]; Postemergence, 16 g ai/ha
  Plant response rating (scale 0 to 100), Velvetleaf: 25
[5]; [14]
  Velvetleaf plant response rating: 40
[5]; [15]
  Velvetleaf plant response rating: 55
[5]; [16]
  Plant response rating, Velvetleaf: 65
[6]; Postemergence, 16 g ai/ha
  Plant response rating (scale 0 to 100), Morningglory: 5
[6]; [14]
  Morningglory plant response rating: 5
[6]; [15]
  Morningglory plant response rating: 5
[6]; [16]
  Plant response rating, Morningglory: 70
[7]
  Sedge, Umbrella plant response rating: 85
Rice (Oryza sativa)
  Rice plant response rating: 20
[8]
  Ducksalad plant response rating: 85
[9]
  Barnyardgrass plant response rating: 40
Corn (Zea mays); [20]
  Plant response rating, Corn: 10
Corn (Zea mays); [21]
  Plant response rating, Corn: 0
[10]; [22]
  Plant response rating, Pigweed: 90
[10]; [20]
  Plant response rating, Pigweed: 90
[10]; [21]
  Plant response rating, Pigweed: 60
[10]; [23]
  Pigweed plant response rating: 100
[11]; [20]
  Plant response rating, Wheat: 10
[11]; [21]
  Plant response rating, Wheat: 0
[12]; [22]
  Plant response rating, Foxtail, Giant: 60
[12]; [20]
  Plant response rating, Foxtail, Giant: 70
[12]; [21]
  Plant response rating, Foxtail, Giant: 0
[12]; [23]
  Foxtail, Giant plant response rating: 90
[13]; [22]
  Plant response rating, Barnyardgrass: 10
[13]; [20]
  Plant response rating, Barnyardgrass: 60
[13]; [21]
  Plant response rating, Barnyardgrass: 0
[13]; [23]
  Barnyardgrass plant response rating: 70

Source: patent US10131652B2, “Pyrimidinyloxy benzene derivatives as herbicides” (E. I. DU PONT DE NEMOURS AND COMPANY, priority 2014, dated 2018)
